This is an account of results in US7112570B2, “GPE analogs” (Neuren Pharmaceuticals, Ltd., priority 2000, dated 2006).

Series [1] can be described thus: Tissue distribution / brain accumulation of tritiated GPE after cardiac, iv, ip or icv administration. Conditions: rat.
Experimental: (§1) Tritiated GPE (Gly-[^3H]Pro-Glu, 1.6 ml, specific activity 50–60 Ci/mmol) obtained from Sibtech, Inc., USA was used in these experiments.
(§2) Adult Wistar rats (300 g) were prepared under halothane/O2 anaesthesia. The rats were randomly assigned to one of four groups: tritiated GPE, saline+0.1% BSA, tritiated GPE+non-tritiated GPE or tritiated proline. Rats in the tritiated GPE, tritiated proline and control groups were sacrificed at 30 min, 1 hr or 6 hrs after administration. Rats co-administered with both tritiated and non- tritiated GPE were sacrificed at 10 minutes after administration. For all groups, tissue was homogenized in Soluene® (a tissue solubilizer; Packard Bioscience Company, Meriden Conn.) and counted in a β counter.
(§3) Rats were injected with 10 million counts of tritiated GPE in 500 μl total (made up with 0.1% BSA in saline). Animals were sacrificed at 30 minutes, 1, 3 or 6 hrs. Tissue was homogenized in Soluene® and counted in a β counter.
(§4) Adult Wistar rats (300 g) were prepared under halothane/O2 anaesthesia. A guide cannula was placed on the dura 7.5 mm anterior from stereotaxic zero and 1.5 mm from midline on the right. One million counts of GPE and 600 μl of non-tritiated GPE were injected in 8 μl total volume (made up with 0.1% BSA in saline). Rats were sacrificed 30 minutes after administration. Tissue was homogenized in Soluene® and counted in a β counter.
(§5) Tritiated GPE, tritiated GPE+non-tritiated GPE, tritiated proline (Amersham) or tritiated proline+non-tritiated proline in vehicle (0.1M citrate buffer [pH6], diluted 10 times in 0.1% bovine serum albumin in 0.1M phosphate buffered saline [PBS] [pH7.3]) were then given by different routes of administration to injured and non-injured rats according to the following study design:
(§6) Cardiac administration was performed using a syringe. The syringe needle was placed into the left ventricle and one of the above four solutions was given.
(§7) IV administration was carried out by injecting one of the four solutions into the tail vein.
(§8) IP administration was performed by injecting one of the four solutions into the peritoneal cavity.
(§9) ICV administration was carried out according to the following procedure. The rats were lightly anaesthetized again using 0.15 ml Saffan™ (Pitman-Moore Ltd, NZ). The infusion of one of the four solutions was made into the right lateral ventricle guided by a metal cap fitted over the rat head using a modified technique originally described by Jirikowski (J Neuroscience Methods, 42: 115–118, 1992), in order to ensure correct placement of the infusion needle. One of the four solutions was administered in a single dose.
(§10) The rats were sacrificed using pentobarbital 10, 60 or 360 minutes after administration of either tritiated GPE or tritiated proline. […] Counts/minute/mg were made in the following tissues: kidney, blood, adrenal glands, liver, lung, testicle, heart, muscle, spinal cord and brain. HPLC was used in order to check that the particles counted were either tritiated GPE or tritiated proline.
Series [2] concerns hypoxic-ischemic injury, hippocampal CA1/2 neurons. As to the kind of experiment: Neuronal survival after hypoxic-ischemic injury, GPE administered peripherally. Type of series: in vivo. The settings on record: rat, GPE intraperitoneally 2 hours after hypoxia, sacrificed 7 days after injury, FIG. 4. Here is the method: This experiment involved treating rats with a control vehicle or GPE administered peripherally 2 hours after a focal CNS injury. […] The degree and length of hypoxia, the ambient temperature and humidity were defmed to standardize the degree of damage. The neuronal death is restricted to the side of the carotid ligation and is primarily in the hippocampus, dentate gyrus, striatum and lateral cortex of the ligated hemisphere. There is no neuronal loss in the contralateral hemisphere.
Specifically forty-nine 50–60 day old adult Wistar rats (280–310 g) were prepared under halothane/O2 anaesthesia. The right side carotid artery was ligated. The rats were allowed to recover for 1 hour and were then placed in an incubator with humidity 90±5% and temperature 31±0.5° C. for 1 hour before hypoxia. Oxygen concentration was reduced and maintained at 6±0.2% 02 for 10 minutes. […]
The rats were transcardially perfised with 0.9% saline followed by 4% paraformaldehyde, and the brains were removed and embedded in paraffin. […] Only cells with a morphology like live neurons were counted, while dead neurons or cells with morphology like glia were not included. […]
A coronal section (A-P 4.5 mm) was used for analysis of the hippocampus. All surviving neurons in the hippocampal CA1/2 region of the injured hemisphere were counted. Data were analysed with paired t-test and presented as mean±sem (standard error of the mean).

The conditions of series [3]: rat, in vivo.
Experimental: as §1, §2, §3, §4, §5, §6, §7, §8, §9, §10
The subject of series [4] is ^3H-Me-GPE binding sites in the rat brain. In words: ^3H-Me-GPE binding autoradiography on rat tissue sections. The settings on record: excess (10 μM) of competitor. As for the experimental part:
After tritiation the reaction mixture was diluted in ammonium acetate buffer (0.05M, pH 5.5 with 20% v/v methanol, 10 ml) and purified using Accell CM- and QMA+Sep-Paks (Waters, Milford, Mass., USA) in series. After washing with the ammonium acetate buffer to remove reagents and byproducts (tritiated water and tritiated methanol), the CM- and QMA+cartridges were uncoupled and the ^3H-Me-GPE was eluted from the QMA cartridge with ammonium bicarbonate (0.3M, 6 ml). The eluted material was lyophilized twice to remove the bulk of the ammonium bicarbonate, dissolved in ethanol-water (1:19, 20 μl ) and aliquots stored at −70° C.
The following experimental protocol followed guidelines approved by the University of Auckland Animal Ethics Committee. Adult male Wistar rats were killed by decapitation and tissues immediately removed and stored at −80° C. Coronal sections (16 μm) were cut on a cryostat and mounted on gelatin-coated slides. Normal adult human postmortem brain (n=4) tissue was cut and mounted in a similar manner. […]

Ends that are not written are not given here. 3H = tritium label

For Gly-Pro-Glu [GPE], the “uptake in the brain of rats with an hypoxic-ischemic brain injury” value in series [1] (ICV administration) is on record as “selectively taken up on the injured side of the brain”. Also, the “displacement when tritiated and non-tritiated GPE were administered together” value in series [1] (cardiac administration, supported by ICV administration) is on record as “the only displacement of GPE occurred in the brain”. Moreover, the “ability to pass through the blood-brain-barrier” value in series [1] (including in the absence of neural insult) is on record as “pass through the blood-brain-barrier”. Also, the “amount in the brain compared to the corresponding time-points after iv and cardiac injection” value in series [1] (ip administration) is “increased”. The “neuronal survival in the hippocampus after an hypoxic-ischemic injury” value in series [2] is “increases neuronal survival”.

For the substance “Gly-[^3H]Pro-Glu (Gly-Pro(3H)-Glu; UniProt P05019 49-51, looked up, fragment) [tritiated GPE]”, in series [3], the “amount in the brain relative to the blood” value is “increases over time” and the “time-point at which there was the most tritiated GPE in the brain” value is 60 min.

With N-methyl-GPE, the “blockade of ^3H-Me-GPE binding in the CA1-2 region” value in series [4] was “blocked”.
